Measured values from patent US10479784B2, “Substituted pyrazin-2-amines as inhibitors of ATR kinase” (Vertex Pharmaceuticals Incorporated, priority 2008, dated 2019).

Molecular target: full-length ATR (Homo sapiens (Human), UniProt Q13535)
Test: ATR Inhibition Assay (radioactive-phosphate incorporation)
Type: biochemical
Conditions: read-out: ATR Ki
Outline: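 Full-length human ATR (5 nM) was assayed at 25 °C in 50 mM Tris/HCl pH 7.5, 10 mM MgCl2, 1 mM DTT, with 10 μM [γ-33P]ATP and 800 μM peptide, after 10-min compound preincubation. Reactions were stopped after 24 h, captured on phosphocellulose and counted; Ki(app) came from non-linear regression of initial rates.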

full-length ATR, sequence (Q13535 whole entry): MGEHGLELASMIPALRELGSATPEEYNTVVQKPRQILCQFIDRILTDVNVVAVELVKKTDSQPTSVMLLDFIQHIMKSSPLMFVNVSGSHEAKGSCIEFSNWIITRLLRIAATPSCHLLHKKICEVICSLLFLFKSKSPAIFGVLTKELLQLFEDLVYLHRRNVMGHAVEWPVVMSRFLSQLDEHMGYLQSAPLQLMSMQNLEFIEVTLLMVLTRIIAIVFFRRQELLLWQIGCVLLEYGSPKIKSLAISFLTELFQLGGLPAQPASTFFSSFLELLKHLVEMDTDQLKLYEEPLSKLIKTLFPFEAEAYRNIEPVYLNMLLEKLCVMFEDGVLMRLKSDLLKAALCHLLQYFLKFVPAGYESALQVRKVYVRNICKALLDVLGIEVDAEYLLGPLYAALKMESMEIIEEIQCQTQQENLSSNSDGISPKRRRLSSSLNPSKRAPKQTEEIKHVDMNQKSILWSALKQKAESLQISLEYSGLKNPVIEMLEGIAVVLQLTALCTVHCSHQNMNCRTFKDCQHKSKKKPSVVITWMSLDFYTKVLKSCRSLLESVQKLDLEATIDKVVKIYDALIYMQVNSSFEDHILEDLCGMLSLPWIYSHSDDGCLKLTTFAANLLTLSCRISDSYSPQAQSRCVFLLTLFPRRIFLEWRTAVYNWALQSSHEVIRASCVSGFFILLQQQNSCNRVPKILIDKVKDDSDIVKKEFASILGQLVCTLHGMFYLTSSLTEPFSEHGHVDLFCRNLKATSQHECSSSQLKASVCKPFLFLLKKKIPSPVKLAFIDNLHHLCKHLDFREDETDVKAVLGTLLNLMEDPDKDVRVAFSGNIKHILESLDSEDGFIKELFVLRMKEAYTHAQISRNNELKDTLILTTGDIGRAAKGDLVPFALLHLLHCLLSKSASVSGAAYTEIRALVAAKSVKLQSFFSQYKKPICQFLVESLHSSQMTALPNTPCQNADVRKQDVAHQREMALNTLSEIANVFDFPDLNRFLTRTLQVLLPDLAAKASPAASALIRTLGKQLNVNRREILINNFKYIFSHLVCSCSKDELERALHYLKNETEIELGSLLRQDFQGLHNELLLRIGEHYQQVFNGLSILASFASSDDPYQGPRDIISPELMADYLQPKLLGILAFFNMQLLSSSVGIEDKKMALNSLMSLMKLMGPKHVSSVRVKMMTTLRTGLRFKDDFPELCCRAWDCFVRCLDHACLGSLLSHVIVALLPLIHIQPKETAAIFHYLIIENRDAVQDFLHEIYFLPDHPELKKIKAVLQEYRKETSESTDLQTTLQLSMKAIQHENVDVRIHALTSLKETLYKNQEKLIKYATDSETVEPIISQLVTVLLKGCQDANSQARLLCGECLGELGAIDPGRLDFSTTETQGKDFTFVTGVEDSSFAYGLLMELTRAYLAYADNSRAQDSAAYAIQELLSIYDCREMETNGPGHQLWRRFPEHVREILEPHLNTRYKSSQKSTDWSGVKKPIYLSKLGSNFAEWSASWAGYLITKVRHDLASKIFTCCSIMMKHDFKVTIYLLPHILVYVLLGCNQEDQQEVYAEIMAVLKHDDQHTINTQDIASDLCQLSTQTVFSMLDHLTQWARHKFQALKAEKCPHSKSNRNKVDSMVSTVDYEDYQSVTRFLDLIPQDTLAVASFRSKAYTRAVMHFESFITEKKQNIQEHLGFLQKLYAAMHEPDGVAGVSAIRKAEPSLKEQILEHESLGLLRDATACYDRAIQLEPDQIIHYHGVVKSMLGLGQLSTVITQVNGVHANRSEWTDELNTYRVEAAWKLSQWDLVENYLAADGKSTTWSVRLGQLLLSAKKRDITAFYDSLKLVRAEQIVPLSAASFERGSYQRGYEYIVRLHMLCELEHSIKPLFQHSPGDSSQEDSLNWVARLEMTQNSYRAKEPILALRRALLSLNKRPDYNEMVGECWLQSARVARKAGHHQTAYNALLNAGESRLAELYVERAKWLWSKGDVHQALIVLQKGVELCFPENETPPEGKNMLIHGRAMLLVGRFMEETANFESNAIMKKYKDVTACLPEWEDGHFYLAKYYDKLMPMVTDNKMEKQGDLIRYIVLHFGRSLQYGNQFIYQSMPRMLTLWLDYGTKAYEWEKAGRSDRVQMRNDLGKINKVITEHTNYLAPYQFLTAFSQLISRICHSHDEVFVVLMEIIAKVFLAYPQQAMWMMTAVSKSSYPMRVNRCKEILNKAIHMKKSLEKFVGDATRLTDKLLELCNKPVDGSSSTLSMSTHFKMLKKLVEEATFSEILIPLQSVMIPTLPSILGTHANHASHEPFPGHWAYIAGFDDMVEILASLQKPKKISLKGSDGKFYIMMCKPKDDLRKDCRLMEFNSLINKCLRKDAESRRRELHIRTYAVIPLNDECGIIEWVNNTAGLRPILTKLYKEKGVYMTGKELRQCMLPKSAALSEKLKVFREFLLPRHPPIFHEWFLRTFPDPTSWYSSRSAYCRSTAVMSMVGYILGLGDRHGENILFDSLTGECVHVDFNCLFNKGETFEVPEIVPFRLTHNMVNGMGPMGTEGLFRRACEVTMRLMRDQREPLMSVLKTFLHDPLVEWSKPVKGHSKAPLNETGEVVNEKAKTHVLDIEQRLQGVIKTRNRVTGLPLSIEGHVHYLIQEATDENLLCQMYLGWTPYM

Row | Ki [nM] | Structure (SMILES)
1 | ≤ 10 | CNCc1ccc(-c2nnc(-c3nc(-c4ccc(S(=O)(=O)C5CCOCC5)cc4)cnc3N)o2)c(F)c1 [IA-344, 3-[5-[2-fluoro-4-(methylaminomethyl)phenyl]-1,3,4-oxadiazol-2-yl]-5-(4-tetrahydropyran-4-ylsulfonylphenyl)pyrazin-2-amine]
2 | 10 to 100 | CCCCOC(=O)c1nnc(-c2nc(-c3ccc(S(=O)(=O)C(C)C)cc3)cnc2N)o1 [IA-113, butyl 5-[3-amino-6-(4-isopropylsulfonylphenyl)pyrazin-2-yl]-1,3,4-oxadiazole-2-carboxylate]
3 | 10 to 100 | CS(=O)(=O)Nc1cccc(-c2cnc(N)c(-c3nnc(-c4ccccc4)o3)n2)c1 [IA-144, N-[3-[5-amino-6-(5-phenyl-1,3,4-oxadiazol-2-yl)pyrazin-2-yl]phenyl]methanesulfonamide]
4 | 100 to 5000 | CNCc1ccc(NC(=O)c2nc(-c3ccc(S(C)(=O)=O)cc3)cnc2N)cc1 [VII-10]
5 | 10 to 100 | Nc1ncc(-c2ccccc2CCO)nc1-c1nnc(-c2ccccc2)o1 [IA-137, 2-[2-[5-amino-6-(5-phenyl-1,3,4-oxadiazol-2-yl)pyrazin-2-yl]phenyl]ethanol]
6 | ≤ 10 | CCc1cc(-c2cnc(N)c(-c3nnc(-c4ccc(CNC)cc4)o3)n2)ccc1S(=O)(=O)C(C)C [IA-326, 5-(3-ethyl-4-isopropylsulfonyl-phenyl)-3-[5-[4-(methylaminomethyl)phenyl]-1,3,4-oxadiazol-2-yl]pyrazin-2-amine]
7 | 10 to 100 | CNCc1cccc(NC(=O)c2nc(-c3ccc(S(C)(=O)=O)cc3)cnc2N)c1 [VII-13]
8 | ≤ 10 | CN(C)[C@@H]1CCN(C(=O)c2ccc(-c3cnc(N)c(-c4nnc(-c5ccccc5)o4)n3)cc2)C1 [IA-10]
9 | 10 to 100 | Nc1ncc(-c2ccoc2)nc1-c1nnc(-c2ccccc2)o1 [IA-170, 5-(3-furyl)-3-(5-phenyl-1,3,4-oxadiazol-2-yl)pyrazin-2-amine]
10 | 10 to 100 | N#Cc1ccccc1-c1cnc(N)c(-c2nnc(-c3ccccc3)o2)n1 [IA-50]
11 | ≤ 10 | CNCc1ccc(-c2nnc(-c3nc(-c4ccc(S(=O)(=O)C(C)C)cc4C#N)cnc3N)o2)cc1 [IA-331, 2-[5-amino-6-[5-[4-(methylaminomethyl)phenyl]-1,3,4-oxadiazol-2-yl]pyrazin-2-yl]-5-isopropylsulfonyl-benzonitrile]
12 | ≤ 10 | CN(C)C(=O)c1ccc(-c2cnc(N)c(-c3nnc(-c4ccccc4O)o3)n2)cc1 [IA-215, 4-[5-amino-6-[5-(2-hydroxyphenyl)-1,3,4-oxadiazol-2-yl]pyrazin-2-yl]-N,N-dimethyl-benzamide]
13 | ≤ 10 | CC(C)NCc1ccc(-c2nnc(-c3nc(-c4ccc(S(=O)(=O)C(C)C)cc4)cnc3N)o2)s1 [IA-248, 3-[5-[5-[(isopropylamino)methyl]-2-thienyl]-1,3,4-oxadiazol-2-yl]-5-(4-isopropylsulfonylphenyl)pyrazin-2-amine]
14 | ≤ 10 | CCS(=O)(=O)c1ccc(-c2cnc(N)c(-c3nnc(-c4ccccc4)o3)n2)cc1 [IA-149, 5-(4-ethylsulfonylphenyl)-3-(5-phenyl-1,3,4-oxadiazol-2-yl)pyrazin-2-amine]
15 | ≤ 10 | CC(C)S(=O)(=O)c1ccc(-c2cnc(N)c(-c3nnc(-c4ccc(CNCC(C)(C)O)cc4F)o3)n2)cc1 [IA-348, 1-(4-(5-(3-amino-6-(4-(isopropylsulfonyl)phenyl)pyrazin-2-yl)-1,3,4-oxadiazol-2-yl)-3-fluorobenzylamino)-2-methylpropan-2-ol]
16 | ≤ 10 | CC(C)S(=O)(=O)c1ccc(-c2cnc(N)c(-c3nnc(-c4ccc(O)cc4)o3)n2)cc1 [IA-193, 4-[5-[3-amino-6-(4-isopropylsulfonylphenyl)pyrazin-2-yl]-1,3,4-oxadiazol-2-yl]phenol]
17 | ≤ 10 | CNCc1ccc(-c2nnc(-c3nc(-c4ccc(S(=O)(=O)C5COC5)cc4)cnc3N)o2)cc1 [IA-308, 3-[5-[4-(methylaminomethyl)phenyl]-1,3,4-oxadiazol-2-yl]-5-[4-(oxetan-3-ylsulfonyl)phenyl]pyrazin-2-amine]
18 | 10 to 100 | Cc1ccc(-c2nnc(-c3nc(-c4ccc(C(=O)N(C)C)cc4)cnc3N)o2)s1 [IA-245, 4-[5-amino-6-[5-(5-methyl-2-thienyl)-1,3,4-oxadiazol-2-yl]pyrazin-2-yl]-N,N-dimethyl-benzamide]
19 | 10 to 100 | Cc1cccc(-c2nnc(-c3nc(-c4ccc(C(=O)N(C)C)cc4)cnc3N)o2)c1 [IA-237, 4-[5-amino-6-[5-(m-tolyl)-1,3,4-oxadiazol-2-yl]pyrazin-2-yl]-N,N-dimethyl-benzamide]
20 | ≤ 10 | CCC(C)S(=O)(=O)c1ccc(-c2cnc(N)c(-c3nnc(-c4ccc(CNC)cc4F)o3)n2)cc1 (centres unmarked) [IA-338, 3-[5-[2-fluoro-4-(methylaminomethyl)phenyl]-1,3,4-oxadiazol-2-yl]-5-(4-sec-butylsulfonylphenyl)pyrazin-2-amine]
21 | ≤ 10 | CN(C)CCS(=O)(=O)c1ccc(-c2cnc(N)c(-c3nnc(-c4ccc(O)cc4)o3)n2)cc1 [IA-191, 4-[5-[3-amino-6-[4-(2-dimethylaminoethylsulfonyl)phenyl]pyrazin-2-yl]-1,3,4-oxadiazol-2-yl]phenol]
22 | 10 to 100 | CN(C)C(=O)c1ccc(-c2cnc(N)c(-c3nnc(Nc4ccccc4Cl)o3)n2)cc1 [IA-151, 4-[5-amino-6-[5-(2-chloroanilino)-1,3,4-oxadiazol-2-yl]pyrazin-2-yl]-N,N-dimethyl-benzamide]
23 | ≤ 10 | CNCc1ccc(-c2nnc(-c3nc(-c4ccc(S(=O)(=O)C5CCOC5)cc4)cnc3N)o2)c(F)c1 (centres unmarked) [IA-347, 3-[5-[2-fluoro-4-(methylaminomethyl)phenyl]-1,3,4-oxadiazol-2-yl]-5-(4-tetrahydrofuran-3-ylsulfonylphenyl)pyrazin-2-amine]
24 | 100 to 5000 | CC(C)c1ccccc1-c1cnc(N)c(-c2nnc(-c3ccccc3)o2)n1 [IA-56]
25 | ≤ 10 | CNCc1ccc(-c2nnc(-c3nc(-c4ccc(S(=O)(=O)C(C)C)c(C#N)c4)cnc3N)o2)cc1 [IA-295, 5-[5-amino-6-[5-[4-(methylaminomethyl)phenyl]-1,3,4-oxadiazol-2-yl]pyrazin-2-yl]-2-isopropylsulfonyl-benzonitrile]
26 | 100 to 5000 | COC(=O)c1ccccc1-c1cnc(N)c(-c2nnc(-c3ccccc3)o2)n1 [IA-105, methyl 2-[5-amino-6-(5-phenyl-1,3,4-oxadiazol-2-yl)pyrazin-2-yl]benzoate]
27 | ≤ 10 | CC(C)S(=O)(=O)c1ccc(-c2cnc(N)c(-c3nnc(-c4ccc(CNC5CCOC5)cc4F)o3)n2)cc1 (centres unmarked) [IA-345, 3-[5-[2-fluoro-4-[(tetrahydrofuran-3-ylamino)methyl]phenyl]-1,3,4-oxadiazol-2-yl]-5-(4-isopropylsulfonylphenyl)pyrazin-2-amine]
28 | ≤ 10 | CCNCc1ccc(-c2cc(-c3nc(-c4ccc(S(=O)(=O)C(C)C)cc4)cnc3N)on2)cc1 [IIA-10, 3-[3-[4-(ethylaminomethyl)phenyl]isoxazol-5-yl]-5-(4-isopropylsulfonylphenyl)pyrazin-2-amine]

The remaining lines, values behind:

Row | Structure (SMILES) | Ki [nM]
29 | Cc1ccc2nc(-c3nc(-c4ccc(C(=O)N5CCNCC5)cc4)cnc3N)[nH]c2c1 [Compound I-149, (4-(5-amino-6-(6-methyl-1H-benzo[d]imidazol-2-yl)pyrazin-2-yl)phenyl)(piperazin-1-yl)methanone] | 10 to 100
30 | COc1ccccc1NC(=O)c1nc(-c2cccs2)cnc1N [Compound I-35, 3-amino-N-(2-methoxyphenyl)-6-(thiophen-2-yl)pyrazine-2-carboxamide] | 10 to 100
31 | Nc1ncc(-c2cccnc2)nc1-c1nnc(-c2ccccc2)[nH]1 [Compound I-138, 3-(5-phenyl-4H-1,2,4-triazol-3-yl)-5-(pyridin-3-yl)pyrazin-2-amine] | 10 to 100
32 | Cc1ccc2nc(-c3nc(-c4ccc(C(=O)N5CCCNCC5)cc4)cnc3N)[nH]c2c1 [Compound I-153, (4-(5-amino-6-(6-methyl-1H-benzo[d]imidazol-2-yl)pyrazin-2-yl)phenyl) (1,4-diazepan-1-yl)methanone] | 10 to 100
33 | Cc1ccc2nc(-c3nc(-c4ccc(C(=O)N5CCC(N(C)C)CC5)cc4)cnc3N)[nH]c2c1 [Compound I-148, (4-(5-amino-6-(6-methyl-1H-benzo[d]imidazol-2-yl)pyrazin-2-yl)phenyl)(4-(dimethylamino)piperidin-1-yl)methanone] | 10 to 100
34 | COc1ccccc1NC(=O)c1nc(-c2ccc3[nH]ncc3c2)cnc1N [Compound I-36, 3-amino-6-(1H-indazol-5-yl)-N-(2-methoxyphenyl)pyrazine-2-carboxamide] | 10 to 100
35 | Nc1ncc(-c2ccc(C(=O)NCCN3CCCCC3)cc2)nc1C(=O)Nc1ccccc1 [Compound I-49, 3-amino-N-phenyl-6-(4-(2-(piperidin-1-yl)ethylcarbamoyl)phenyl) pyrazine-2-carboxamide] | 100 to 5000
36 | Nc1ncc(-c2ccc(C(=O)NCCN3CCCC3)cc2)nc1-c1nc2ccccc2[nH]1 [Compound I-133, 4-(5-amino-6-(1H-benzo[d]imidazol-2-yl)pyrazin-2-yl)-N-(2-(pyrrolidin-1-yl)ethyl)benzamide] | 10 to 100
37 | Nc1ncc(-c2cccc(C(=O)N3CCCC3)c2)nc1C(=O)Nc1ccccc1 [Compound I-63, 3-amino-N-phenyl-6-(3-(pyrrolidine-1-carbonyl)phenyl)pyrazine-2-carboxamide] | 100 to 5000
38 | Nc1ncc(-c2ccccc2)nc1C(=O)Nc1ccccc1 [Compound I-15, 3-amino-N,6-diphenylpyrazine-2-carboxamide] | 100 to 5000
39 | Cc1ccc2nc(-c3nc(-c4ccc(C(=O)N5CCCN(C(=O)OC(C)(C)C)CC5)cc4)cnc3N)[nH]c2c1 [Compound I-147, tert-butyl 4-(4-(5-amino-6-(6-methyl-1H-benzo[d]imidazol-2-yl)pyrazin-2-yl)phenylcarbonyl)-1,4-diazepane-1-carboxylate] | ≤ 10
40 | CS(=O)(=O)c1ccc(-c2cnc(N)c(-c3nc4cccnc4[nH]3)n2)cc1 [Compound I-112, 3-(3H-imidazo[4,5-b]pyridin-2-yl)-5-(4-(methylsulfonyl)phenyl) pyrazin-2-amine] | ≤ 10
41 | CS(=O)(=O)c1ccc(-c2cnc(N)c(C(=O)Nc3nc4ccccc4[nH]3)n2)cc1 [Compound V-11] | ≤ 10
